Columns and labels:
MAGL [1] = target: T1, MAGL (Mus musculus, UniProt O35678); experiment: In vitro competitive activity-based protein profiling (mouse), MAGL gel band; format: biochemical; settings: for IC50: mouse; for inhibition at 1 µM: read-out: MAGL % inh. 1 μM
T1 construct: Proteomes (mouse brain membrane fraction or cell lysates); from tissue; host or cells: mouse brain membrane fraction (or cell lysates)
T1 sequence (O35678 1-303): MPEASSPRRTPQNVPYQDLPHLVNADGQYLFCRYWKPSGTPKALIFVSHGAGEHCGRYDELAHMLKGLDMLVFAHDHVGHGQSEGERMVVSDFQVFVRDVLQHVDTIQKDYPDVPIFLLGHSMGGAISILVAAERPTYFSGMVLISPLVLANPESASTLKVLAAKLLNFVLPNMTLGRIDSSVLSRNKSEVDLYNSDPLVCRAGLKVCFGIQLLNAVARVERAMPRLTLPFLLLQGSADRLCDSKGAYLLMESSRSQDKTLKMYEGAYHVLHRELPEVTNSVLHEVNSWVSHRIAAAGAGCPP
Method in brief: (§1)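 Mouse brain membrane proteome or cell lysate (1.0 mg/mL total protein) was preincubated with varying inhibitor concentrations for 30 min at 37 °C, then labelled for 30 min at 37 °C with FP-Rh or HT-01 (50 μM stock in DMSO). Activity was read as fluorescent band intensity after SDS-PAGE.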

FAAH = target: T2, FAAH (Mus musculus, UniProt O08914); experiment: In vitro competitive activity-based protein profiling (mouse), FAAH gel band; format: biochemical; settings: for IC50: mouse; for inhibition at 1 µM: read-out: FAAH % inh. 1 μM
T2 construct: Proteomes (mouse brain membrane fraction or cell lysates); from tissue; host or cells: mouse brain membrane fraction (or cell lysates)
T2 sequence (O08914 1-579): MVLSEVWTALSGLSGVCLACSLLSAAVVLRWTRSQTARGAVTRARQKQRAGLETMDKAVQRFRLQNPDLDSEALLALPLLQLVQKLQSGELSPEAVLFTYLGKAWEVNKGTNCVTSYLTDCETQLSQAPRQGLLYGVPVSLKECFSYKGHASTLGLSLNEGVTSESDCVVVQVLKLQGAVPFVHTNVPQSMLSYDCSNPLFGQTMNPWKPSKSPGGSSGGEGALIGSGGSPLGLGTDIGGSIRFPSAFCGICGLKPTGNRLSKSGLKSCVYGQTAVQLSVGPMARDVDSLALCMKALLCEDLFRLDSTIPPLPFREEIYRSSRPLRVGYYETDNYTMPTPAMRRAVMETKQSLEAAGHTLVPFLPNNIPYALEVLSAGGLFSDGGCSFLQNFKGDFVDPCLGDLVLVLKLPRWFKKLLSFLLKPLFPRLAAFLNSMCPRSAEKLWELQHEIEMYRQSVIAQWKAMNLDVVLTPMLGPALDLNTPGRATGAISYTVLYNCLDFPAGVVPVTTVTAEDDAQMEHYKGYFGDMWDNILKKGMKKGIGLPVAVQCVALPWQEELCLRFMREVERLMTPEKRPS
Method in brief: as §1

MAGL [2] = target: T1, MAGL; experiment: Mouse brain proteomes from inhibitor treated mice (oral gavage, sacrificed 4 h after administration); format: in vivo; settings: read-out: MAGL % inh. 5 mg/kg
Protocol: Compounds are tested to assess their MAGL and other serine hydrolase activity using the following in vitro and in vivo assays.
Preparation of Mouse Brain Proteomes from Inhibitor Treated Mice.
Inhibitors were administered to wild-type C57Bl/6J by oral gavage in a vehicle of polyethylene glycol. Each animal was sacrificed 4 h following administration and brain proteomes were prepared and analyzed according to previously established methods (See Niphakis, M. J., et al. (2011) ACS Chem. Neurosci. and Long, J. Z., et al. Nat. Chem. Biol. 5:37-44)

Compound | IC50 (MAGL [1]) [nM] | inhibition at 1 µM (MAGL [1]) [%] | IC50 (FAAH) [nM] | inhibition at 1 µM (FAAH) [%] | inhibition at 5 mg/kg (MAGL [2]) [%]
CC(=O)Nc1ccn(C(=O)N2CCC3(CCCN3Cc3ccc(Cl)cc3N3CCC4(CCOCC4)C3)CC2)n1 [Example 9, N-(1-(1-(4-chloro-2-(8-oxa-2-azaspiro[4.5]decan-2-yl)benzyl)-1,8-diazaspiro[4.5]decane-8-carbonyl)-1H-pyrazol-3-yl)acetamide] | ≤ 100 | ≥ 75 | 1000 to 10000 | 0 to 25 | 0 to 25
CC(=O)Nc1ccn(C(=O)N2CCC3(CCCN3Cc3ccc(C(F)(F)F)cc3N3CCOCC3)CC2)n1 [Example 10, N-(1-(1-(2-morpholino-4-(trifluoromethyl)benzyl)-1,8-diazaspiro[4.5]decane-8-carbonyl)-1H-pyrazol-3-yl)acetamide] | ≤ 100 | ≥ 75 | 1000 to 10000 | 0 to 25 | 0 to 25
CC(=O)Nc1ccn(C(=O)N2CCC3(CCCN3Cc3ccc(C(F)(F)F)cc3N3CCC(F)CC3)CC2)n1 [Example 12, N-(1-(1-(2-(4-fluoropiperidin-1-yl)-4-(trifluoromethyl)benzyl)-1,8-diazaspiro[4.5]decane-8-carbonyl)-1H-pyrazol-3-yl)acetamide] | ≤ 100 | ≥ 75 | 1000 to 10000 | 0 to 25 | 0 to 25
CC(=O)Nc1ccn(C(=O)N2CCC3(CCCN3Cc3ccc(Cl)cc3N3CCCC3)CC2)n1 [Example 14, N-(1-(1-(4-chloro-2-(pyrrolidin-1-yl)benzyl)-1,8-diazaspiro[4.5]decane-8-carbonyl)-1H-pyrazol-3-yl)acetamide] | ≤ 100 | ≥ 75 | 1000 to 10000 | 0 to 25 | 25 to 50
CC(=O)Nc1ccn(C(=O)N2CCC3(CCCN3Cc3ccc(Cl)cc3N3CCC(F)CC3)CC2)n1 [Example 18, N-(1-(1-(4-chloro-2-(4-fluoropiperidin-1-yl)benzyl)-1,8-diazaspiro[4.5]decane-8-carbonyl)-1H-pyrazol-3-yl)acetamide] | ≤ 100 | ≥ 75 | 1000 to 10000 | 0 to 25 | 0 to 25
CC(=O)Nc1ccn(C(=O)N2CCC3(CCCN3Cc3ccc(C(F)(F)F)cc3N3CC4CCC(C3)O4)CC2)n1 [Example 20, N-(1-(1-(2-(8-oxa-3-azabicyclo[3.2.1]octan-3-yl)-4-(trifluoromethyl)benzyl)-1,8-diazaspiro[4.5]decane-8-carbonyl)-1H-pyrazol-3-yl)acetamide] | ≤ 100 | ≥ 75 | 1000 to 10000 | 0 to 25 | 0 to 25
CC(=O)Nc1ccn(C(=O)N2CCC3(CCCN3Cc3ccc(C(F)(F)F)cc3N3CCC4(CC3)CCN(S(C)(=O)=O)C4)CC2)n1 [Example 26, N-(1-(1-(2-(2-(methylsulfonyl)-2,8-diazaspiro[4.5]decan-8-yl)-4-(trifluoromethyl)benzyl)-1,8-diazaspiro[4.5]decane-8-carbonyl)-1H-pyrazol-3-yl)acetamide] | ≤ 100 | ≥ 75 | 1000 to 10000 | 0 to 25 | 0 to 25
CC(=O)Nc1ccn(C(=O)N2CCC3(CCCN3Cc3ccc(C(F)(F)F)cc3N3CCC4(CCOCC4)C3)CC2)n1 [Example 28, N-(1-(1-(2-(8-oxa-2-azaspiro[4.5]decan-2-yl)-4-(trifluoromethyl)benzyl)-1,8-diazaspiro[4.5]decane-8-carbonyl)-1H-pyrazol-3-yl)acetamide] | ≤ 100 | ≥ 75 | 1000 to 10000 | 0 to 25 | 0 to 25
CC(=O)Nc1ccn(C(=O)N2CCC3(CCCN3Cc3ccc(C(F)(F)F)cc3N3CCC(F)(F)CC3)CC2)n1 [Example 29, N-(1-(1-(2-(4,4-difluoropiperidin-1-yl)-4-(trifluoromethyl)benzyl)-1,8-diazaspiro[4.5]decane-8-carbonyl)-1H-pyrazol-3-yl)acetamide] | ≤ 100 | ≥ 75 | 1000 to 10000 | 25 to 50 | 0 to 25
CCN1CCN(c2cc(C(F)(F)F)ccc2CN2CCCC23CCN(C(=O)n2ccc(NC(C)=O)n2)CC3)CC1 [Example 31, N-(1-(1-(2-(4-ethylpiperazin-1-yl)-4-(trifluoromethyl)benzyl)-1,8-diazaspiro[4.5]decane-8-carbonyl)-1H-pyrazol-3-yl)acetamide] | 100 to 1000 | ≥ 75 | 1000 to 10000 | 0 to 25 | 25 to 50
CC(=O)Nc1ccn(C(=O)N2CCC3(CCCN3Cc3ccc(C(F)(F)F)cc3N3CC4COCC4C3)CC2)n1 (centres unmarked) [Example 32, N-(1-(1-(2-(dihydro-1H-furo[3,4-c]pyrrol-5(3H,6H,6aH)-yl)-4-(trifluoromethyl)benzyl)-1,8-diazaspiro[4.5]decane-8-carbonyl)-1H-pyrazol-3-yl)acetamide] | ≤ 100 | ≥ 75 | 1000 to 10000 | 0 to 25 | 25 to 50
CC(=O)Nc1ccn(C(=O)N2CCC3(CCCN3Cc3ccc(Cl)cc3N3CCCCC3)CC2)n1 [Example 33, N-(1-(1-(4-chloro-2-(piperidin-1-yl)benzyl)-1,8-diazaspiro[4.5]decane-8-carbonyl)-1H-pyrazol-3-yl)acetamide] | ≤ 100 | ≥ 75 | 1000 to 10000 | 0 to 25 | 25 to 50
CC(=O)Nc1ccn(C(=O)N2CCC3(CCCN3Cc3ccc(Cl)cc3N3CC4CCC(C3)O4)CC2)n1 [Example 34, N-(1-(1-(2-(8-oxa-3-azabicyclo[3.2.1]octan-3-yl)-4-chlorobenzyl)-1,8-diazaspiro[4.5]decane-8-carbonyl)-1H-pyrazol-3-yl)acetamide] | ≤ 100 | ≥ 75 | 1000 to 10000 | 0 to 25 | 0 to 25
CC(=O)Nc1ccn(C(=O)N2CCC3(CCCN3Cc3ccc(Cl)cc3N3CCC4(CC3)CCN(S(C)(=O)=O)C4)CC2)n1 [Example 37, N-(1-(1-(4-chloro-2-(2-(methylsulfonyl)-2,8-diazaspiro[4.5]decan-8-yl)benzyl)-1,8-diazaspiro[4.5]decane-8-carbonyl)-1H-pyrazol-3-yl)acetamide] | ≤ 100 | ≥ 75 | 1000 to 10000 | 0 to 25 | 0 to 25
CC(=O)Nc1ccn(C(=O)N2CCC3(CCCN3Cc3ccc(Cl)cc3N3CCC4(C3)CN(S(C)(=O)=O)C4)CC2)n1 [Example 38, N-(1-(1-(4-chloro-2-(2-(methylsulfonyl)-2,6-diazaspiro[3.4]octan-6-yl)benzyl)-1,8-diazaspiro[4.5]decane-8-carbonyl)-1H-pyrazol-3-yl)acetamide] | ≤ 100 | ≥ 75 | 1000 to 10000 | 0 to 25 | 0 to 25
CC(=O)Nc1ccn(C(=O)N2CCN(Cc3ccc(C(F)(F)F)cc3N3CCCCC3)CC2)n1 [Example 39, N-(1-(4-(2-(piperidin-1-yl)-4-(trifluoromethyl)benzyl)piperazine-1-carbonyl)-1H-pyrazol-3-yl)acetamide] | ≤ 100 | ≥ 75 | 1000 to 10000 | 0 to 25 | ≥ 75

Source: US10519134B2, “Pyrazole compounds and methods of making and using same” (Lundbeck La Jolla Research Center, Inc., priority 2015, dated 2019)
